In patent US8598128B2, “Fructosylated puerarin, and preparation method and use thereof” (priority 2010, dated 2013):
Converted amounts (≈) assume the structure as drawn. “Also recorded” adds a separate entry of the source.

Key:
[1] = test system: myocardio ischemia mice; assay: T wave amplitude variation in pituitrin acute myocardial ischemia model; type: in vivo, Sprague-Dawley mice (SD mice)
From the text: Embodiment 6: […] Pituitrin injection was purchased from Nanjing Xinbai Pharmaceutical Co., Ltd., normal saline injection from Nanjing Xiaoying Pharmaceutical Co., Ltd., and DMSO, PG, and anhydrous ethanol were of chromatographic class. […] The data were presented with, and tested with t. P<0.05 indicates substantial difference, P<0.01 indicates very substantial difference; and P<0.001 indicates extremely substantial difference.

[2] = Solubility determination at 25° C.
[3] = test system: human breast cancer cell strain MDA-MB-231; assay: MDA-MB-231 cell toxicity test (MTT); type: cell-based; settings: 48 h; for OD value: MTT 490 nm
Procedure: MDA-MB-231 cells were cultured in an incubator at 37° C. with 5% CO2 saturated humidity in the RPMI-1640 complete culture medium containing inactivated fetal calf serum with volume fraction of 10%, 100 U penicillin and streptomycin. Take MDA-MB-231 cells in logarithmic phase (primary culture bottle) and discard the culture solution. […] Prepare the suspended solution of cells and adjust the cell concentration with appropriate amount of complete culture medium to 3×10^4/mL. Fed the cells into a tissue culture plate 96, with cell suspended liquid of 180 μL in each case, and put the culture plate into a cell incubator (37° C., 5% CO2) for conventional culture. When cells grew to 50%-70%, add drug liquid of different concentration. […] For DMSO solvent control group, add 20 μL of PBS containing […] and for the blank group, add 20 μL of PBS. For each drug concentration, 6 complex cases were provided. Put back the culture plate into the cell incubator, after 48 h, add 20 μL MTT (5 mg/mL) solution and continue to incubate it in the incubator for 4 h, then remove the supernatant and dry it with tissue, add 200 μL DMSO into each case and vibrate it in the rocker without light for 15 min, to allow the crystal to fully dissolve. Determine the light absorption at 490 nm with a fully automatic ELISA instrument, and calculate the average suppression rate, suppression rate (%)=(control group A490−test group A490)/control group A490), the experiment was repeated three times. Relevant analysis and Student t tests in Microsoft Excel 2003 were used, and data are presented in X±SD.

[4] = test system: human chronmyelogenors leukemia cell strain K562; assay: K562 cell toxicity test (MTT); type: cell-based; settings: 48 h; for OD value: MTT 490 nm
Procedure: K-562 cells were cultured in an incubator at 37° C. with 5% CO2 saturated humidity in the RPMI-1640 complete culture medium containing inactivated calf serum with volume fraction of 10%, 100 U penicillin and streptomycin. […] For each drug concentration, 6 complex cases were provided. Put back the culture plate into the cell incubator, after 48 h, add 20 μL MTT (5 mg/mL) solution and continue to incubate it in the incubator for 4 h, then each case was added with triple liquid 100 μL, put it overnight to allow the crystal to fully dissolve. Vibrate it with oscillator for 20 min and determine the light absorption at 490 nm with a fully automatic ELISA instrument, and calculate the average suppression rate, suppression rate (%)=(control group A490−test group A490)/control group A490), the experiment was repeated three times. Relevant analysis and Student t tests in Microsoft Excel 2003 were used, and data are presented in X±SD.

[5] = Metabokinetic experiment in blood after caudal vein injection; settings: 50 mg/kg caudal vein, n = 5
Procedure: Embodiment 5: Metabokinetic Experiment of monofructosyl-β(2,6)-Puerarin in Blood
In HPLC analysis, DIONEX was used, with chromatographic column as Discovery HS C18 ([…], 5 μm), feeding specimen volume 20 μL, column temperature 30° C., the detector was UVD170U, with detection wavelength of 254 nm, flowing phase: A, water, B, chromatographic class methanol, A:B=80:20, at flow rate of 1 mL/min.
Sprague-Dawley mice (SD mice), with weight of 180-220 g, male and female in half, provided by Medical Experiment Center of Nantong University, with production permit No.: SCXK (Su) 20080010.
SD mice were randomly divided into 2 groups of 5 each, fasting for 12 hours before experiment. Puerarin and monofructosyl-β(2,6)-puerarin were respectively dissolved in 20% 1,2-PG normal saline, and injected into mouse caudal vein at a dosage of 50 mg/kg. After injection, at t=0 min, 4 min, 7 min, 17 min, 40 min, 60 min, 120 min and 180 min, 0.5 mL of blood was taken from orbit and put into centrifugal tubes treated with liquaemin, then it was immediately separated by centrifuging at 3000 rpm for 15 min, to separate out plasma for analysis.
Plasma of 100 μL was precisely taken and put into test tube, and 400 μL of methanol sedimented protein was added, they were mixed on vortex mixer for 5 min, then centrifuged at 10000 rpm for 10 min, and the supernatant was used for HPLC analysis.
The plasma concentration of the puerarin and monofructosyl-β(2,6)-puerarin specimens prepared as per 3.2 was obtained by calculation with external reference method. The data obtained were analyzed using pharmacokinetics statistic software.

Which “T wave amplitude variation” value ([1]; 12.5 mg/kg, 15 s after Pit) does the source give for O=c1c(-c2ccc(O)cc2)coc2c([C@@H]3O[C@H](CO[C@]4(CO)O[C@H](CO)[C@@H](O)[C@@H]4O)[C@@H](O)[C@H](O)[C@H]3O)c(O)ccc12 [monofructosyl-β(2,6)-puerarin] here?
The value was 0.082 ± 0.060 mv.

What about the “T wave amplitude variation” value ([1]; 12.5 mg/kg, 30 s after Pit) of the same molecule?
Its value is 0.097 ± 0.084 mv.

What about the “T wave amplitude variation” value ([1]; 12.5 mg/kg, 1 min after Pit) of the same molecule?
Its value is 0.051 ± 0.034 mv.

What about the “T wave amplitude variation” value ([1]; 12.5 mg/kg, 2 min after Pit) of the same molecule?
Its value is 0.102 ± 0.071 mv.

What about the “T wave amplitude variation” value ([1]; 12.5 mg/kg, 5 min after Pit) of the same molecule?
The value was 0.069 ± 0.040 mv.

And the “T wave amplitude variation” value ([1]; 12.5 mg/kg, 10 min after Pit)?
The value was 0.068 ± 0.038 mv.

What about the “T wave amplitude variation” value ([1]; 25 mg/kg, 15 s after Pit) of the same molecule?
Its value is 0.053 ± 0.027 mv.

What about the “T wave amplitude variation” value ([1]; 25 mg/kg, 30 s after Pit) of the same molecule?
Its value is 0.105 ± 0.076 mv.

What about the “T wave amplitude variation” value ([1]; 25 mg/kg, 1 min after Pit) of the same molecule?
The value was 0.116 ± 0.088 mv.

What about the “T wave amplitude variation” value ([1]; 25 mg/kg, 2 min after Pit) of the same molecule?
Its value is 0.112 ± 0.087 mv.

What about the “T wave amplitude variation” value ([1]; 25 mg/kg, 5 min after Pit) of the same molecule?
Its value is 0.067 ± 0.038 mv.

What about the “T wave amplitude variation” value ([1]; 25 mg/kg, 10 min after Pit) of the same molecule?
The value was 0.054 ± 0.038 mv.

And the “T wave amplitude variation” value ([1]; 50 mg/kg, 15 s after Pit)?
The value was 0.092 ± 0.067 mv.

And the “T wave amplitude variation” value ([1]; 50 mg/kg, 30 s after Pit)?
Its value is 0.118 ± 0.087 mv.

What about the “T wave amplitude variation” value ([1]; 50 mg/kg, 1 min after Pit) of the same molecule?
The value was 0.109 ± 0.084 mv.

What about the “T wave amplitude variation” value ([1]; 50 mg/kg, 2 min after Pit) of the same molecule?
Its value is 0.106 ± 0.091 mv.

What about the “T wave amplitude variation” value ([1]; 50 mg/kg, 5 min after Pit) of the same molecule?
Its value is 0.080 ± 0.070 mv.

What about the “T wave amplitude variation” value ([1]; 50 mg/kg, 10 min after Pit) of the same molecule?
Its value is 0.082 ± 0.058 mv.

What about the “effect against myocardial ischemia (T wave) in words” value ([1]; 12.5, 25 and 50 mg/kg, compared with puerarin) of the same molecule?
Its value is “can better resist myocardial ischemia than puerarin; also recorded: has better effect to resist myocardio ischemia than puerarin”.

And the solubility [2]?
The solubility was 26.0 mg/mL (≈ 44.9 mM).

What about the “solubility relative to puerarin” value ([2]; puerarin 5.2 g/L) of the same molecule?
Its value is 5 times.

And the Average suppression rate ([3]; 0.5 μmol/L)?
The Average suppression rate was 3.68%.

And the OD value ([3]; 0.5 μmol/L)?
Its OD value is 0.676 ± 0.021.

What about the Average suppression rate ([3]; 1 μmol/L) of the same molecule?
The Average suppression rate was 5.02%.

What about the OD value ([3]; 1 μmol/L) of the same molecule?
Its OD value is 0.666 ± 0.069.

And the Average suppression rate ([3]; 5 μmol/L)?
The Average suppression rate was 3.47%.

And the OD value ([3]; 5 μmol/L)?
The OD value was 0.677 ± 0.081.

What about the Average suppression rate ([3]; 10 μmol/L) of the same molecule?
Its Average suppression rate is 4.20%.

What about the OD value ([3]; 10 μmol/L) of the same molecule?
Its OD value is 0.672 ± 0.085.

What about the Average suppression rate ([3]; 50 μmol/L) of the same molecule?
Its Average suppression rate is 20.17%.

And the OD value ([3]; 50 μmol/L)?
The OD value was 0.560 ± 0.062.

What about the Average suppression rate ([3]; 100 μmol/L) of the same molecule?
The Average suppression rate was 28.70%.

And the OD value ([3]; 100 μmol/L)?
The OD value was 0.500 ± 0.068.

And the Average suppression rate ([3]; 150 μmol/L)?
The Average suppression rate was 44.04%.

And the OD value ([3]; 150 μmol/L)?
Its OD value is 0.392 ± 0.041.

What about the Average suppression rate ([3]; 200 μmol/L) of the same molecule?
Its Average suppression rate is 59.42%.

And the OD value ([3]; 200 μmol/L)?
The OD value was 0.285 ± 0.067.

And the Average suppression rate ([4]; 1 μmol/L)?
The Average suppression rate was 7.85%.

What about the OD value ([4]; 1 μmol/L) of the same molecule?
Its OD value is 0.950 ± 0.041.

And the Average suppression rate ([4]; 5 μmol/L)?
Its Average suppression rate is 7.53%.

And the OD value ([4]; 5 μmol/L)?
Its OD value is 0.950 ± 0.018.

What about the Average suppression rate ([4]; 10 μmol/L) of the same molecule?
Its Average suppression rate is 6.76%.

And the OD value ([4]; 10 μmol/L)?
The OD value was 0.958 ± 0.022.

And the Average suppression rate ([4]; 20 μmol/L)?
The Average suppression rate was 6.16%.

What about the OD value ([4]; 20 μmol/L) of the same molecule?
Its OD value is 0.963 ± 0.055.

And the Average suppression rate ([4]; 50 μmol/L)?
The Average suppression rate was 11.14%.

And the OD value ([4]; 50 μmol/L)?
The OD value was 0.913 ± 0.048.

What about the Average suppression rate ([4]; 100 μmol/L) of the same molecule?
The Average suppression rate was 16.41%.

And the OD value ([4]; 100 μmol/L)?
The OD value was 0.858 ± 0.028.

What about the Average suppression rate ([4]; 150 μmol/L) of the same molecule?
The Average suppression rate was 29.84%.

What about the OD value ([4]; 150 μmol/L) of the same molecule?
Its OD value is 0.720 ± 0.055.

What about the Average suppression rate ([4]; 200 μmol/L) of the same molecule?
Its Average suppression rate is 46.41%.

What about the OD value ([4]; 200 μmol/L) of the same molecule?
Its OD value is 0.550 ± 0.086.

What about the “AUC (0-t)” value [5] of the same molecule?
Its value is 5523.446 ± 688.104 mg/Lxmin.

What about the “CL (whole body clearance)” value [5] of the same molecule?
Its value is 9 ± 1 mL/min/kg.

What about the “MRT (0-t)” value [5] of the same molecule?
Its value is 25.707 ± 2.324 min.

And the “MRT (0-∞)” value [5]?
Its value is 27.453 ± 2.976 min.

What about the Y [5] of the same molecule?
Its Y is 0.256 ± 0.032 L/kg.

And the “t½ (half life of clearance)” value [5]?
The value was 19.741 ± 2.34 min.
